How the values were obtained:
[1] = system: MAb 3A2; assay: Indirect competition EIA, cross-reactivity with common agrochemicals (wells coated with hapten 17-OA); type: binding, mouse; settings: for inhibition: 5-10 ppm
Procedure: EIAs were done essentially as described by Karu et al (1994). For indirect EIAs, hapten-protein conjugates were adsorbed to wells of Immulon 2™ 96-well plates (Dynatech) in 0.1 mL of coating buffer (0.015 M Na2CO3 ― 0.035 M NaHCO3 ―0.003 M NaN3, pH 9.6). PBS-Tween containing 0.05% gelatin, 0.45 micron-filtered, was used as the diluent for antibodies and antibody-analyte mixtures, and as a blocking solution to prevent adventitious binding. The detecting antibody for the indirect EIAs was alkaline phosphatase conjugated goat anti-mouse IgG and IgM The substrate solution for color development was p-nitrophenyl phosphate 1 mg/mL, in 10% (w/v) diethanolamine-HCl, pH 9.8 ― 0.5 mM MgCl2 ― 3 mM NaN3. • 1. Indirect competition EIA. Indirect competition EIA (immobilized hapten conjugate) was used to evaluate the responses of mice, screen the MAbs, and quantify imidazolinone analytes. Optimal amounts of imidazolinone-BSA or -OVA conjugate for plate coating and dilutions for the hybridoma culture supernate or antiserum were determined by checkerboard assay. To perform the assay, wells were coated overnight at 4°C with a limiting amount of conjugate in 0.1 mL of coating buffer. Imidazolinone standards (0.5 to 5000 ppb) or unknowns were mixed with a limiting amount of antiserum or hybridoma culture fluid in the diluent and incubated overnight at 4°C in tightly sealed polypropylene tubes. The coated wells were washed and blocked with 0.2 mL of 0.05% gelatin in PBS-Tween for 30 minutes at room temperature. After another wash, aliquots (0.1 mL) of the antibody-analyte mixture were added to wells, and the remainder of the assay was performed as previously described (Karu et al., 1994). • 2. Direct competition EIA. Direct EIAs were performed by capturing the MAb on microwells and allowing the analyte to compete with a HRP-conjugated hapten for binding. Bound HRP-conjugate was then detected with a commercial HRP substrate. The sensitivity of this assay was enhanced by use of a commercial enzymatic signal amplification kit (GIBCO-BRL). Wells were coated with 200 or 500 ng of affinity-purified goat anti-mouse IgG or anti-mouse IgG Fc in the coating buffer at 4°C overnight. The next day, the wells were washed and blocked with PBS-Tween-gelatin for 30 minutes at room temperature, and then incubated for 1.5 hours at room temperature with hybridoma culture supernate. The plates were washed with PBS-Tween, and 0.1 mL of diluent containing the analyte and a limiting amount of biotinylated imidazolinone was added for 1.5 h at room temperature. The wells were washed three times with PBS-Tween, and Extravidin-alkaline phosphatase conjugate (Sigma) was then added for 30 minutes at room temperature. The plates were washed again with TBS (0.05 M Tris-HCl, pH 7.5,― 0.15 M NaCl) to remove remaining inorganic phosphate, which can inhibit the GIBCO-BRL EIA Amplification system. Substrate solution for the amplification step (0.05 mL) was added for 15 minutes at room temperature, followed by 0.05 mL of the enzymatic amplifying solution and chromogen. Color development at 492 nm was recorded. • 3. EIA Data Analysis. Color development was monitored on a Multiskan EIA reader (Flow Laboratories) interfaced with a Macintosh computer, and the rates of the reaction were calculated by linear regression. Competition EIA dose- response curves were fitted with a 4-parameter logistic equation (Karu et al., 1994). […]

[2] = system: scFv p3A5.1c7 (scFv 3A5, SEQ.ID NO. 3); assay: Relative affinity of MAb and affinity-purified scFv by indirect EIA with equimolar protein; type: binding, mouse; settings: indirect EIA on 16-BSA, scFv versus MAb 3A5
Procedure: The relative affinities of the MAbs and affinity-purified scFv were determined by indirect EIA using equimolar amounts of protein, essentially as described by Graham, B. M., et al. 1995. Cloning, expression, and characterization of a single-chain antibody fragment to the herbicide paraquat. J. Chem. Tech. Biotechnol. 63: 279-289. The results are illustrated in graphical form in Figures 15A (16-BSA) and 15B (17-OA), with the MAb represented by the solid line and the scFv represented by the broken line in each plot.

[3] = system: panel of monoclonal antibodies (MAbs); assay: Detection of imidazolinones by the panel of MAbs (EIA); type: binding, mouse
Procedure: EIAs were done essentially as described by Karu et al (1994). For indirect EIAs, hapten-protein conjugates were adsorbed to wells of Immulon 2™ 96-well plates (Dynatech) in 0.1 mL of coating buffer (0.015 M Na2CO3 ― 0.035 M NaHCO3 ―0.003 M NaN3, pH 9.6). PBS-Tween containing 0.05% gelatin, 0.45 micron-filtered, was used as the diluent for antibodies and antibody-analyte mixtures, and as a blocking solution to prevent adventitious binding. The detecting antibody for the indirect EIAs was alkaline phosphatase conjugated goat anti-mouse IgG and IgM The substrate solution for color development was p-nitrophenyl phosphate 1 mg/mL, in 10% (w/v) diethanolamine-HCl, pH 9.8 ― 0.5 mM MgCl2 ― 3 mM NaN3. • 1. Indirect competition EIA. Indirect competition EIA (immobilized hapten conjugate) was used to evaluate the responses of mice, screen the MAbs, and quantify imidazolinone analytes. Optimal amounts of imidazolinone-BSA or -OVA conjugate for plate coating and dilutions for the hybridoma culture supernate or antiserum were determined by checkerboard assay. To perform the assay, wells were coated overnight at 4°C with a limiting amount of conjugate in 0.1 mL of coating buffer. Imidazolinone standards (0.5 to 5000 ppb) or unknowns were mixed with a limiting amount of antiserum or hybridoma culture fluid in the diluent and incubated overnight at 4°C in tightly sealed polypropylene tubes. The coated wells were washed and blocked with 0.2 mL of 0.05% gelatin in PBS-Tween for 30 minutes at room temperature. After another wash, aliquots (0.1 mL) of the antibody-analyte mixture were added to wells, and the remainder of the assay was performed as previously described (Karu et al., 1994). • 2. Direct competition EIA. Direct EIAs were performed by capturing the MAb on microwells and allowing the analyte to compete with a HRP-conjugated hapten for binding. Bound HRP-conjugate was then detected with a commercial HRP substrate. The sensitivity of this assay was enhanced by use of a commercial enzymatic signal amplification kit (GIBCO-BRL). Wells were coated with 200 or 500 ng of affinity-purified goat anti-mouse IgG or anti-mouse IgG Fc in the coating buffer at 4°C overnight. The next day, the wells were washed and blocked with PBS-Tween-gelatin for 30 minutes at room temperature, and then incubated for 1.5 hours at room temperature with hybridoma culture supernate. The plates were washed with PBS-Tween, and 0.1 mL of diluent containing the analyte and a limiting amount of biotinylated imidazolinone was added for 1.5 h at room temperature. The wells were washed three times with PBS-Tween, and Extravidin-alkaline phosphatase conjugate (Sigma) was then added for 30 minutes at room temperature. The plates were washed again with TBS (0.05 M Tris-HCl, pH 7.5,― 0.15 M NaCl) to remove remaining inorganic phosphate, which can inhibit the GIBCO-BRL EIA Amplification system. Substrate solution for the amplification step (0.05 mL) was added for 15 minutes at room temperature, followed by 0.05 mL of the enzymatic amplifying solution and chromogen. Color development at 492 nm was recorded. • 3. EIA Data Analysis. Color development was monitored on a Multiskan EIA reader (Flow Laboratories) interfaced with a Macintosh computer, and the rates of the reaction were calculated by linear regression. Competition EIA dose- response curves were fitted with a 4-parameter logistic equation (Karu et al., 1994).

[4] = system: AHAS isozymes, designated I and II; settings: isozymes from Black Mexican Sweet corn; cited from earlier work
[5] = system: scFv p3A5.1c7 (scFv 3A5, SEQ.ID NO. 3); assay: Indirect competition EIA with scFv (16-BSA coating), compared with MAb 3A5.1; type: binding, mouse; settings: scFv on 16-BSA versus MAb 3A5.1

| Compound | cross-reactivity ([1]; up to 10 ppm) | also measured |
| --- | --- | --- |
| CCCN(CCC)C(=O)SCC [EPTC, S-ethyl dipropylthiocarbamate] | No cross-reactivity | – |
| CCc1cccc(CC)c1N(COC)C(=O)CCl [alachlor, 2-chloro-2'-6'-diethyl-N-(methoxymethyl)-acetanilide] | No cross-reactivity | – |
| CCNc1nc(Cl)nc(NC(C)C)n1 [atrazine, Atrazine] | No cross-reactivity | – |
| CCOC(=O)c1ccccc1S(=O)(=O)NC(=O)Nc1nc(Cl)cc(OC)n1 [chlorimuron ethyl, ethyl 2-[[[[(4-chloro-6-methoxypyrimidin 2-yl)amino]carbonyl]amino]sulfonyl]benzoate] | – | inhibition [1]: 10-15%; cross-reactivity ([1]; up to 5 ppm): did not cross-react |
| COc1nc(C)nc(NC(=O)NS(=O)(=O)c2ccccc2Cl)n1 [chlorsulfuron, 2-chloro-N[(4-methoxy-6-methyl-1,3,5 triazin-2-yl)aminocarbonyl]benzenesulfonamide] | – | inhibition [1]: 10-15%; cross-reactivity ([1]; up to 5 ppm): did not cross-react |
| CC(C)N.O=C(O)CNCP(=O)(O)O [glyphosate, N-(phosphono-methyl) glycine isopropylamine salt] | No cross-reactivity | – |
| CC(C)C1(C)N=C(c2ncc(C=CC(=O)O)cc2C(=O)O)NC1=O (stereo not shown) [hapten 16, imazapyr-5-propenoic acid] | – | affinity of the scFv relative to that of the MAb (fold poorer) [2]: about 1,000 fold |
| Cc1cnc(C2=NC(C)(C(C)C)C(=O)N2)c(C(=O)O)c1 (stereo not shown) [imazapic, 5-methyl-2-(4-isopropyl-4-methyl-5-oxo-2-imidazolin-2-yl) nicotinic acid] | – | detection range [3]: 3 to 30 ng/mL |
| CC(C)C1(C)N=C(c2ncccc2C(=O)O)NC1=O (stereo not shown) [imazapyr, 2-(4-isopropyl-4-methyl-5-oxo-2-imidazolin-2-yl) nicotinic acid] | – | sensitivity of AHAS II vs AHAS I to inhibition [4]: significantly more sensitive; detection range [3]: 300-500 ppb |
| CC(C)C1(C)N=C(c2nc3ccccc3cc2C(=O)O)NC1=O (stereo not shown) [imazaquin, 2-(4-isopropyl-4-methyl-5-oxo-2-imidazolin-2-yl)-3-quinoline carboxylic acid] | – | I50 with scFv relative to I50 with the MAb (higher = less sensitive) [5]: about two-fold; detection range [3]: 3 to 30 ng/mL |
| CCc1cccc(C)c1N(C(=O)CCl)C(C)COC (stereo not shown) [metolachlor, 2-chloro-N-(2-ethyl-6-methylphenyl)-N-(2-methoxy-1-methylethyl) acetamide] | No cross-reactivity | – |
| CCSC(=O)N1CCCCCC1 [molinate, S-ethyl-hexahydro-1-H-azepine-1-carbothioate] | No cross-reactivity | – |
| CCOc1cc(Oc2ccc(C(F)(F)F)cc2Cl)ccc1[N+](=O)[O-] [oxyfluorfen, 2-chloro-1-(3-ethoxy-4-nitrophenoxy)-4-(trifluoromethyl) benzene] | No cross-reactivity | – |
| C[n+]1ccc(-c2cc[n+](C)cc2)cc1.[Cl-].[Cl-] [paraquat, 1,1'-dimethyl-4,4'-bipyridinium dichloride] | No cross-reactivity | – |
| CCC(CC)Nc1c([N+](=O)[O-])cc(C)c(C)c1[N+](=O)[O-] [pendimethalin, N-(1-ethylpropyl)-3,4-dimethyl-2,6-dinitrobenzenamine] | No cross-reactivity | – |
| COC(=O)Nc1cccc(OC(=O)Nc2cccc(C)c2)c1 [phenmedipham, 3-methoxycarbonylaminophenyl-N(3'-methylphenyl)carbamate] | No cross-reactivity | – |
| CCC/C(=N\OCC)C1=C(O)CC(CC(C)SCC)CC1=O (stereo not shown) [sethoxydim] | No cross-reactivity | – |
| a mixture of methyl 6-(4-isopropyl-4-methyl-5-oxo-2-imidazolin-2-yl) m-toluate and methyl 2-(4-isopropyl-4-methyl-5-oxo-2-imidazolin-2-yl) p-toluate [imazamethabenz-methyl] | – | detection range [3]: 300-500 ppb |
